“And” between values parts separate entries of the source, which are not always exact repeats. Equal entries are not always repeated. Where two headings read alike, the source gives them in different places.
Legend:
[1] = Pharmacokinetics: plasma concentration after oral administration; format: in vivo, mouse; conditions: for concentration at 0.5 hr / concentration at 1.25 hr / concentration at 2 hr / concentration at 4 hr / concentration at 6 hr: plasma, individual mice; for concentration at 0.5 hr: read-out: Conc. (µM) 0.5 hr; for concentration at 1.25 hr: read-out: Conc. (µM) 1.25 hr; for concentration at 2 hr: read-out: Conc. (µM) 2 hr; for concentration at 4 hr: read-out: Conc. (µM) 4 hr; for concentration at 6 hr: read-out: Conc. (µM) 6 hr; for maximal plasma concentration: at 30 min
Experimental: (§1) C57BL/6 mice that had been denied access to food overnight received the indicated oral dose of DS20060511, and blood samples were collected from the tail vein at the indicated timepoints. Plasma samples for quantitation of DS20060511 were prepared by centrifugation. Another group of mice received oral administration DS20060511 (30 mg kg^−1) and euthanized 75 min later. The soleus and gastrocnemius muscles, heart, and inguinal WAT were removed and homogenized in water (5 vol.) for quantitation of the drug concentrations. Plasma samples and tissue homogenates were analyzed by LC-MS/MS (Nexera MP System, SHIMADZU, Kyoto, Japan; API4000 System, SCIEX, Framingham, MA). The tissue concentrations of the compound were calculated by assuming the volume of 1 g of tissue is 1 mL. Evaluation of the metabolic stability of the compound to mouse and human cytochrome P450 (CYP) was conducted as follows. The test compound (1 μM) was incubated with pooled liver microsomes (0.1 mg mL^−1) in sodium phosphate buffer (100 mM, pH 7.4) at 37 °C with an NADPH generating system: β-nicotinamide adenine dinucleotide phosphate (β-NADP) 1 mM, D-glucose 6-phosphate (G-6-P) 10 mM, glucose 6-phosphate dehydrogenase (G-6-PDH) 1 U mL^−1, and magnesium chloride 3.3 mM. After 30 min incubation, the reaction was terminated by addition of acetonitrile and samples were analyzed by LC-MS/MS. The results were expressed as the amount of compound remaining (expressed as a percentage), based on the ratio of the relative area to that in the control (without reaction).

[2] = Tissue concentrations 75 min after oral administration; format: in vivo, mouse; conditions: for concentration at 75 min: 30 mg/kg, 30 mg/kg oral, individual mice
Experimental: as §1

[3] = test system: mouse liver microsomal fraction; experiment: Metabolic stability in mouse liver microsomes; format: in vitro ADME; conditions: after 1 h incubation, 1 μM
Experimental: as §1, with “The test compound (1 μM) was incubated with pooled liver microsomes (0.1 mg mL^−1) in sodium phosphate buffer (100 mM, pH 7.4) at 37 °C with an NADPH generating system: β-nicotinamide adenine dinucleotide phosphate (β-NADP) 1 mM, D-glucose 6-phosphate (G-6-P) 10 mM, glucose 6-phosphate dehydrogenase (G-6-PDH) 1 U mL^−1, and magnesium chloride 3.3 mM. After 30 min incubation, the reaction was terminated by addition of acetonitrile and samples were analyzed by LC-MS/MS.” left out

[4] = C57BL/6, mouse, po, 1 mg/kg, 1 mg/kg oral
[5] = C57BL/6, mouse, po, 30 mg/kg, 30 mg/kg oral

Work on `COc1ccc2c(C)c(C(=O)O)ccc2c1C1C2=C(CC(C)(C)CC2=O)OC2=C1C(=O)CC(C)(C)C2` [DS20060511] yielded a concentration at 0.5 hr [1, 4] of 0.6 µM, a concentration at 1.25 hr [1, 4] of 0.23 µM and a concentration at 2 hr [1, 4] of 0 µM. For the same compound, the concentration at 4 hr [1, 4] was 0 µM, the concentration at 6 hr [1, 4] was 0 µM and the concentration at 4 hr ([1]; C57BL/6, mouse, po, 10 mg/kg, 10 mg/kg oral) was 1.2 µM. For the same compound, the concentration at 0.5 hr [1, 5] was 77.7 µM, the concentration at 1.25 hr [1, 5] was 49.6 µM and the concentration at 2 hr [1, 5] was 35 µM. It also gave a maximal plasma concentration ([1]; oral 1 mg kg−1, normal mice) of 0.6 µM, a maximal plasma concentration ([1]; oral 10 mg kg−1) of 16.5 µM and a maximal plasma concentration ([1]; oral 30 mg kg−1) of 71.4 µM. For the same compound, the concentration at 0.5 hr ([1]; 1 mg/kg oral, 1 mg/kg) was 0.5 µM and 0.44 µM and 0.65 µM, the concentration at 1.25 hr ([1]; 1 mg/kg oral, 1 mg/kg) was 0.268 µM and 0.4 µM and 0.221 µM and the concentration at 0.5 hr ([1]; 10 mg/kg oral, 10 mg/kg) was 17.9 µM and 8.3 µM and 19.0 µM and 20.9 µM. The concentration at 1.25 hr ([1]; 10 mg/kg oral, 10 mg/kg) was 3.9 µM and 5.3 µM and 9.9 µM and 11.4 µM, the concentration at 2 hr ([1]; 10 mg/kg oral, 10 mg/kg) was 7.0 µM and 2.1 µM and 5.0 µM and 6.6 µM and the concentration at 4 hr ([1]; 10 mg/kg oral, 10 mg/kg) was 0.6 µM and 0.8 µM and 0.7 µM. For the same compound, the concentration at 6 hr ([1]; 10 mg/kg oral, 10 mg/kg) was 0.285 µM and 0.0 µM and 0.323 µM, the concentration at 0.5 hr ([1]; 30 mg/kg oral, 30 mg/kg) was 74.9 µM and 69.3 µM and 63.8 µM and the concentration at 1.25 hr ([1]; 30 mg/kg oral, 30 mg/kg) was 41.0 µM and 53.8 µM. For the same compound, the concentration at 2 hr ([1]; 30 mg/kg oral, 30 mg/kg) was 28.7 µM and 34.5 µM and 44.1 µM, the concentration at 4 hr ([1]; 30 mg/kg oral, 30 mg/kg) was 6.7 µM and 5.3 µM and 8.2 µM and 10.7 µM and the concentration at 6 hr ([1]; 30 mg/kg oral, 30 mg/kg) was 1.9 µM and 1.8 µM and 1.0 µM and 3.0 µM. The concentration at 75 min ([2]; C57BL/6, mouse, gastrocnemius muscle, po, Gastro. muscle, read-out: Conc. (µM) Gastro.) was 8 µM, the concentration at 75 min ([2]; C57BL/6, mouse, heart, po, heart, read-out: Conc. (µM) Heart) was 21.3 µM and the concentration at 75 min ([2]; C57BL/6, mouse, inguinal WAT, po, WAT, read-out: Conc. (µM) WAT) was 6.8 µM. For the same compound, the concentration at 75 min ([2]; C57BL/6, mouse, soleus muscle, po, soleus, read-out: Conc. (µM) Soleus) was 10.8 µM, the concentration at 75 min ([2]; Gastro. muscle, read-out: Conc. (µM) Gastro.) was 9.3 µM and 7.1 µM and 8.8 µM and the concentration at 75 min ([2]; WAT, read-out: Conc. (µM) WAT) was 5.9 µM and 5.0 µM and 4.1 µM. The concentration at 75 min ([2]; heart, read-out: Conc. (µM) Heart) was 21.0 µM and 19.6 µM and 18.0 µM, the “concentrations in tissues (in words)” value ([2]; skeletal muscle, WAT, heart, 75 min after oral 30 mg kg−1) was “almost comparable concentrations among the skeletal muscle, WAT, and heart” and the concentration at 75 min ([2]; soleus, read-out: Conc. (µM) Soleus) was 13.8 µM and 9.8 µM and 11.1 µM. For the same compound, the compound remaining [3] was 89%.

Reference: paper PMC8379256, “A xanthene derivative, DS20060511, attenuates glucose intolerance by inducing skeletal muscle-specific GLUT4 translocation in mice” (Communications Biology, 2021)
